Results: patent US11230593B2, “Compositions and methods for treating and preventing influenza” (VISTERRA, INC., priority 2019, dated 2022)
Where two headings read alike, the source gives them in different places.

Key:
[1] = tested on: A/Hong Kong/4801/2014 (H3N2); experiment: microbe, parasite or virus in culture; assay type: cell-based, Influenza A
[2] = tested on: A/Michigan/45/2015 (H1N1); experiment: microbe, parasite or virus in culture; assay type: cell-based, Influenza A
[3] = tested on: MDCK cells
[4] = tested on: A/California/04/2009 (H1N1); experiment: microbe, parasite or virus in culture; assay type: cell-based; conditions: Influenza A virus
[5] = tested on: A/PR/8/1934 (H1N1) (wild-type); experiment: microbe, parasite or virus in culture; assay type: cell-based; conditions: Influenza A virus
[6] = in vivo, cited from earlier work
[7] = read-out: EC50 (μM) - Replicate 1
[8] = read-out: EC50 (μM) - Replicate 2

In the case of `CC(=O)N[C@H]1[C@H]([C@H](O)[C@H](O)CO)OC(C(=O)O)=C[C@@H]1N=C(N)N` [Zanamivir (ZAN), Zanamivir], the EC50 ([1]; Influenza A virus, H3N2, 40 h) is reported as 2600 nM, the EC50 ([2]; Influenza A virus, H1N1, MDCK, read-out: EC50 (μM) - Replicate 1) is reported as 0.06 µM and the EC50 ([2]; Influenza A virus, H1N1, MDCK, read-out: EC50 (μM) - Replicate 2) is reported as 0.034 µM.
In the case of `CCC(CC)[C@H](NC(C)=O)[C@@H]1[C@H](O)[C@@H](C(=O)O)C[C@H]1N=C(N)N.O.O.O` [Peramivir (PER), Peramivir trihydrate], the EC50 [1] is reported as “the most potent NAI”, the EC50 ([1]; read-out: EC50) is reported as 57 nM and the EC50 [2, 7] is reported as 0.01 µM. For the same molecule, the EC50 [2, 8] was < 0.006 µM.
Molecule Oseltamivir acid [Oseltamivir (OSE)] has an EC50 ([1]; read-out: EC50) of 760 nM, an EC50 [2, 7] of 0.18 µM and an EC50 [2, 8] of 0.024 µM. For the same molecule, the CC50 [3] was >50 µg/mL.
In the case of `O=C1c2c(O)c(=O)ccn2N([C@@H]2c3ccccc3SCc3c2ccc(F)c3F)[C@@H]2COCCN12` [baloxavir, Baloxavir], the EC50 ([1]; Influenza A virus, H3N2) is reported as 0.8 nM, the EC50 [4] is reported as 1 nM and the EC50 [5] is reported as ~1 nM. For the same molecule, the Cmax ([6]; 40 mg) was 96.4 ng/mL and the Cmax ([6]; 80 mg) was 107 ng/mL.
